Key:
Aβ oligomers [1] = target: T1, Aβ oligomers (Homo sapiens, UniProt P05067); assay: Isothermal titration calorimetry (ITC) binding to Aβ oligomers; conditions: KD ITC, Table 1, PBS pH 7.4, 285 K, Aβ 100 µM in cell, ligand 250 µM in syringe, two independent site model
T1 construct: Ser^26 depsipeptide iso-Aβ (1–42) was used; made in house; host or cells: chemical peptide synthesis (no expression host)
Method: The binding affinities of 2b–2i to Aβ oligomers were tested in ITC experiments.
In this work, Ser^26 depsipeptide iso-Aβ (1–42) was used, which was synthesized and purified as described previously. The lyophilized iso-Aβ (1–42) was dissolved in MilliQ water to a concentration of 1 mg mL^−1, sonicated for 3 min and the pH was set to 7.0 to initiate an O to N acyl migration, whereby the native sequence can be readily formed. The sample was incubated at room temperature for 10 min. Then the pH was set to 11 and the sample was kept at room temperature for additional 2 h. After the incubation, the Aβ stock solution was aliquoted and stored at −20 °C until use. To obtain Aβ oligomers, the 1 mg mL^−1 aliquot was diluted to a final concentration of 50 μM with 26.67 mM PBS and the pH was set to 7.4 with 1 M HCl. The sample was incubated at 37 °C for 3 h.
Isothermal calorimetric titrations were performed with a Microcal VP-ITC microcalorimeter in pH 7.4 PBS buffer solution. In individual titrations, 10 µL portions of the ligand containing solution were repeatedly injected from the computer-controlled 300-µL microsyringe at intervals of 300 s into the Aβ oligomer solution prepared in the same buffer as the ligand. All measurements were carried out at 285 K. The Aβ concentration in the cell was 100 µM and the total ligand concentration was 250 µM in the syringe and the titration was stopped when the precipitation of the Aβ aggregates became excessive. Control experiments were performed by injecting the ligand into a cell containing buffer with no target, and the heats of dilution were subtracted from those measured in the presence of Aβ. The experimental data were fitted to the two independent site binding models by using a nonlinear least-squares procedure, with ΔHb, ΔHb’, Kd, Kd’ ([…]), n and n’ (number of binding sites for monomer), as adjustable parameters.

Aβ oligomers [2] = target: T1, Aβ oligomers; assay: Sandwich ELISA binding of biotin-tagged conjugates to Aβ
From the text: To study the role of certain structure elements in the binding affinity, a set of new foldamer sequences were designed (Figure 2) and ligated to lysine-dendron scaffolds having a focal symmetry. This template with biotin affinity tag can be easily synthesized by solid phase peptide synthesis and immobilized on a streptavidin coated support such as the surface of the ELISA plate. Structural changes included fine-tuning the side-chain properties (2b–2d), changing the position of ionic residues (2e) and introducing bulky bicyclic side-chains (2f–2i).
The binding affinities of 2b–2i to Aβ oligomers were tested in ITC experiments. In such cases where the fitting failed due to low heat response or poor solubility, sandwich ELISA experiments were performed to enable the comparison of all conjugates (see Supporting Information for details).
The apparent dissociation constants for the complete set of new conjugates were calculated individually from the data of the ELISA experiments as well. Comparing the KD values of 2f–2i in this case, the replacement of ACHC to ABHC had only a minor effect on the Aβ binding. The cyclic β-amino acid ACHC not only provides the helical conformation of such a short foldamer but also protects the ionic residues from solvent upon binding due to its hydrophobicity.

T1 sequence (P05067 672-713 limits assumed): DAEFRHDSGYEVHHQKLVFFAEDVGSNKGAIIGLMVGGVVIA

SMILES	Kd (Aβ oligomers [1]; first binding stage)	Kd (Aβ oligomers [1]; second binding stage)	Kd (Aβ oligomers [2])
CC1(C)[C@H]2C[C@H](NC(=O)[C@H]3CCCC[C@@H]3NC(=O)C[C@H](CCCNC(=N)N)NC(=O)[C@H]3CCCC[C@@H]3N)[C@@H](C(=O)N[C@@H](CC(=O)O)CC(=O)N[C@H]3CCCC[C@@H]3C(=O)NCC(=O)NCC(=O)N[C@@H](CSC3CC(=O)N(CCC(=O)NCCCC[C@H](NC(=O)CCN4C(=O)CC(SC[C@H](NC(=O)CNC(=O)CNC(=O)[C@H]5CCCC[C@@H]5NC(=O)C[C@H](CC(=O)O)NC(=O)[C@@H]5[C@@H](NC(=O)[C@H]6CCCC[C@@H]6NC(=O)C[C@H](CCCNC(=N)N)NC(=O)[C@H]6CCCC[C@@H]6N)C[C@H]6C[C@@H]5C6(C)C)C(N)=O)C4=O)C(=O)NCCCC[C@H](NC(=O)[C@H](CCCCNC(=O)CCN4C(=O)CC(SC[C@H](NC(=O)CNC(=O)CNC(=O)[C@H]5CCCC[C@@H]5NC(=O)C[C@H](CC(=O)O)NC(=O)[C@@H]5[C@@H](NC(=O)[C@H]6CCCC[C@@H]6NC(=O)C[C@H](CCCNC(=N)N)NC(=O)[C@H]6CCCC[C@@H]6N)C[C@H]6C[C@@H]5C6(C)C)C(N)=O)C4=O)NC(=O)CCN4C(=O)CC(SC[C@H](NC(=O)CNC(=O)CNC(=O)[C@H]5CCCC[C@@H]5NC(=O)C[C@H](CC(=O)O)NC(=O)[C@@H]5[C@@H](NC(=O)[C@H]6CCCC[C@@H]6NC(=O)C[C@H](CCCNC(=N)N)NC(=O)[C@H]6CCCC[C@@H]6N)C[C@H]6C[C@@H]5C6(C)C)C(N)=O)C4=O)C(=O)N[C@@H](CCCCNC(=O)CCCC[C@@H]4SC[C@@H]5NC(=O)N[C@@H]54)C(N)=O)C3=O)C(N)=O)[C@@H]1C2 (stereo partly drawn) [Compound 2h]	0.00861 ± 0.00564 µM	0.079 ± 0.0459 µM	0.00135 ± 8e-05 µM
N=C(N)NCCC[C@@H](CC(=O)N[C@H]1CCCC[C@@H]1C(=O)N[C@H]1CCCC[C@@H]1C(=O)N[C@@H](CC(=O)O)CC(=O)N[C@H]1CCCC[C@@H]1C(=O)NCC(=O)NCC(=O)N[C@@H](CSC1CC(=O)N(CCC(=O)NCCCC[C@H](NC(=O)CCN2C(=O)CC(SC[C@H](NC(=O)CNC(=O)CNC(=O)[C@H]3CCCC[C@@H]3NC(=O)C[C@H](CC(=O)O)NC(=O)[C@H]3CCCC[C@@H]3NC(=O)[C@H]3CCCC[C@@H]3NC(=O)C[C@H](CCCNC(=N)N)NC(=O)[C@H]3CCCC[C@@H]3N)C(N)=O)C2=O)C(=O)NCCCC[C@H](NC(=O)[C@H](CCCCNC(=O)CCN2C(=O)CC(SC[C@H](NC(=O)CNC(=O)CNC(=O)[C@H]3CCCC[C@@H]3NC(=O)C[C@H](CC(=O)O)NC(=O)[C@H]3CCCC[C@@H]3NC(=O)[C@H]3CCCC[C@@H]3NC(=O)C[C@H](CCCNC(=N)N)NC(=O)[C@H]3CCCC[C@@H]3N)C(N)=O)C2=O)NC(=O)CCN2C(=O)CC(SC[C@H](NC(=O)CNC(=O)CNC(=O)[C@H]3CCCC[C@@H]3NC(=O)C[C@H](CC(=O)O)NC(=O)[C@H]3CCCC[C@@H]3NC(=O)[C@H]3CCCC[C@@H]3NC(=O)C[C@H](CCCNC(=N)N)NC(=O)[C@H]3CCCC[C@@H]3N)C(N)=O)C2=O)C(=O)N[C@@H](CCCCNC(=O)CCCC[C@@H]2SC[C@@H]3NC(=O)N[C@@H]32)C(N)=O)C1=O)C(N)=O)NC(=O)[C@H]1CCCC[C@@H]1N (stereo partly drawn) [Compound 2a]	0.0276 ± 0.00774 µM	0.24 ± 0.0687 µM	0.00095 ± 6e-05 µM
NCCCC[C@@H](CC(=O)N[C@H]1CCCC[C@@H]1C(=O)N[C@H]1CCCC[C@@H]1C(=O)N[C@@H](CC(=O)O)CC(=O)N[C@H]1CCCC[C@@H]1C(=O)NCC(=O)NCC(=O)N[C@@H](CSC1CC(=O)N(CCC(=O)NCCCC[C@H](NC(=O)CCN2C(=O)CC(SC[C@H](NC(=O)CNC(=O)CNC(=O)[C@H]3CCCC[C@@H]3NC(=O)C[C@H](CC(=O)O)NC(=O)[C@H]3CCCC[C@@H]3NC(=O)[C@H]3CCCC[C@@H]3NC(=O)C[C@H](CCCCN)NC(=O)[C@H]3CCCC[C@@H]3N)C(N)=O)C2=O)C(=O)NCCCC[C@H](NC(=O)[C@H](CCCCNC(=O)CCN2C(=O)CC(SC[C@H](NC(=O)CNC(=O)CNC(=O)[C@H]3CCCC[C@@H]3NC(=O)C[C@H](CC(=O)O)NC(=O)[C@H]3CCCC[C@@H]3NC(=O)[C@H]3CCCC[C@@H]3NC(=O)C[C@H](CCCCN)NC(=O)[C@H]3CCCC[C@@H]3N)C(N)=O)C2=O)NC(=O)CCN2C(=O)CC(SC[C@H](NC(=O)CNC(=O)CNC(=O)[C@H]3CCCC[C@@H]3NC(=O)C[C@H](CC(=O)O)NC(=O)[C@H]3CCCC[C@@H]3NC(=O)[C@H]3CCCC[C@@H]3NC(=O)C[C@H](CCCCN)NC(=O)[C@H]3CCCC[C@@H]3N)C(N)=O)C2=O)C(=O)N[C@@H](CCCCNC(=O)CCCC[C@@H]2SC[C@@H]3NC(=O)N[C@@H]32)C(N)=O)C1=O)C(N)=O)NC(=O)[C@H]1CCCC[C@@H]1N (stereo partly drawn) [Compound 2b]	0.0532 ± 0.0387 µM	0.373 ± 0.104 µM	0.00536 ± 0.00142 µM
CC1(C)[C@H]2C[C@H](N)[C@@H](C(=O)N[C@@H](CCCNC(=N)N)CC(=O)N[C@H]3CCCC[C@@H]3C(=O)N[C@H]3CCCC[C@@H]3C(=O)N[C@@H](CC(=O)O)CC(=O)N[C@H]3CCCC[C@@H]3C(=O)NCC(=O)NCC(=O)N[C@@H](CSC3CC(=O)N(CCC(=O)NCCCC[C@H](NC(=O)CCN4C(=O)CC(SC[C@H](NC(=O)CNC(=O)CNC(=O)[C@H]5CCCC[C@@H]5NC(=O)C[C@H](CC(=O)O)NC(=O)[C@H]5CCCC[C@@H]5NC(=O)[C@H]5CCCC[C@@H]5NC(=O)C[C@H](CCCNC(=N)N)NC(=O)[C@@H]5[C@@H](N)C[C@H]6C[C@@H]5C6(C)C)C(N)=O)C4=O)C(=O)NCCCC[C@H](NC(=O)[C@H](CCCCNC(=O)CCN4C(=O)CC(SC[C@H](NC(=O)CNC(=O)CNC(=O)[C@H]5CCCC[C@@H]5NC(=O)C[C@H](CC(=O)O)NC(=O)[C@H]5CCCC[C@@H]5NC(=O)[C@H]5CCCC[C@@H]5NC(=O)C[C@H](CCCNC(=N)N)NC(=O)[C@@H]5[C@@H](N)C[C@H]6C[C@@H]5C6(C)C)C(N)=O)C4=O)NC(=O)CCN4C(=O)CC(SC[C@H](NC(=O)CNC(=O)CNC(=O)[C@H]5CCCC[C@@H]5NC(=O)C[C@H](CC(=O)O)NC(=O)[C@H]5CCCC[C@@H]5NC(=O)[C@H]5CCCC[C@@H]5NC(=O)C[C@H](CCCNC(=N)N)NC(=O)[C@@H]5[C@@H](N)C[C@H]6C[C@@H]5C6(C)C)C(N)=O)C4=O)C(=O)N[C@@H](CCCCNC(=O)CCCC[C@@H]4SC[C@@H]5NC(=O)N[C@@H]54)C(N)=O)C3=O)C(N)=O)[C@@H]1C2 (stereo partly drawn) [Compound 2f]	0.0193 ± 0.0094 µM	0.816 ± 0.467 µM	0.00179 ± 9e-05 µM
N=C(N)NCCC[C@@H](CC(=O)N[C@H]1CCCC[C@@H]1C(=O)N[C@H]1CCCC[C@@H]1C(=O)N[C@@H](CCC(=O)O)CC(=O)N[C@H]1CCCC[C@@H]1C(=O)NCC(=O)NCC(=O)N[C@@H](CSC1CC(=O)N(CCC(=O)NCCCC[C@H](NC(=O)CCN2C(=O)CC(SC[C@H](NC(=O)CNC(=O)CNC(=O)[C@H]3CCCC[C@@H]3NC(=O)C[C@H](CCC(=O)O)NC(=O)[C@H]3CCCC[C@@H]3NC(=O)[C@H]3CCCC[C@@H]3NC(=O)C[C@H](CCCNC(=N)N)NC(=O)[C@H]3CCCC[C@@H]3N)C(N)=O)C2=O)C(=O)NCCCC[C@H](NC(=O)[C@H](CCCCNC(=O)CCN2C(=O)CC(SC[C@H](NC(=O)CNC(=O)CNC(=O)[C@H]3CCCC[C@@H]3NC(=O)C[C@H](CCC(=O)O)NC(=O)[C@H]3CCCC[C@@H]3NC(=O)[C@H]3CCCC[C@@H]3NC(=O)C[C@H](CCCNC(=N)N)NC(=O)[C@H]3CCCC[C@@H]3N)C(N)=O)C2=O)NC(=O)CCN2C(=O)CC(SC[C@H](NC(=O)CNC(=O)CNC(=O)[C@H]3CCCC[C@@H]3NC(=O)C[C@H](CCC(=O)O)NC(=O)[C@H]3CCCC[C@@H]3NC(=O)[C@H]3CCCC[C@@H]3NC(=O)C[C@H](CCCNC(=N)N)NC(=O)[C@H]3CCCC[C@@H]3N)C(N)=O)C2=O)C(=O)N[C@@H](CCCCNC(=O)CCCC[C@@H]2SC[C@@H]3NC(=O)N[C@@H]32)C(N)=O)C1=O)C(N)=O)NC(=O)[C@H]1CCCC[C@@H]1N (stereo partly drawn) [Compound 2c]	0.00253 ± 0.00181 µM	0.175 ± 0.0464 µM	0.00192 ± 0.00021 µM
